The target of one data set is T1, DdGlud2 (Dictyostelium discoideum, UniProt Q54VI3).
T1 construct: gene glud2; full-length, His6-SUMO tag cleaved by ULP, E. coli BL21 Rosetta; elutes at 212 kDa
T1 sequence (Q54VI3 1-1042): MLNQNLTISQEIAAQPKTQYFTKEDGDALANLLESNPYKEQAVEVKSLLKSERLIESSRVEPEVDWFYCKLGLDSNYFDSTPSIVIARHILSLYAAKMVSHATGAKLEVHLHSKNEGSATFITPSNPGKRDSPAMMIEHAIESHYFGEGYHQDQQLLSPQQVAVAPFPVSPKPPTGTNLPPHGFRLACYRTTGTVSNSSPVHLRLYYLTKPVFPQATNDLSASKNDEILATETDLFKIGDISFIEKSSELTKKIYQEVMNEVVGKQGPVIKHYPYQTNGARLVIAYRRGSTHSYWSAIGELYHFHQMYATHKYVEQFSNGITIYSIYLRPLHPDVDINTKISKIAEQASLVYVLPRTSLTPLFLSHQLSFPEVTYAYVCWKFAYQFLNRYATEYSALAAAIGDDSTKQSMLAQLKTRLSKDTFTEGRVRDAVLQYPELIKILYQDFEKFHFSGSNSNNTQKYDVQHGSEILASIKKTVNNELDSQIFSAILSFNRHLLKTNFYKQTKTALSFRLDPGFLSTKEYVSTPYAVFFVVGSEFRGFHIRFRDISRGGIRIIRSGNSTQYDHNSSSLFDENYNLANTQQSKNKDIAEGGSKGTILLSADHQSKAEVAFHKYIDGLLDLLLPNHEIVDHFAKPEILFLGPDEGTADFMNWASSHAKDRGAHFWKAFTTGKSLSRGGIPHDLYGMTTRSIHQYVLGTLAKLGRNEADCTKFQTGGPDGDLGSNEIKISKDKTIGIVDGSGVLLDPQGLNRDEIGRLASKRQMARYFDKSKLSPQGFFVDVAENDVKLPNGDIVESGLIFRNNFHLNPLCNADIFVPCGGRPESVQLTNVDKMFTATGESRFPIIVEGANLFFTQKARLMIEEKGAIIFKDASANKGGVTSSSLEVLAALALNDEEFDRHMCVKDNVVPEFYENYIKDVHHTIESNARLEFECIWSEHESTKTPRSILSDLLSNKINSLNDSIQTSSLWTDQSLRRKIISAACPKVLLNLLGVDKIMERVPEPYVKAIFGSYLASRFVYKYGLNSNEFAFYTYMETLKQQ
As to the kind of experiment: NADH formation at […] nm. To be noted: activator; 1 mM GTP, 10 mM Glu, 1 mM NAD+; pH 8.0, 23 °C. In kind it is biochemical.

In a further data set the target is Lart1 (Legionella pneumophila, UniProt Q5ZZ30). As to conditions: 250 μM etheno-NAD+, 0-8 mM nicotinamide, 0.5 mg/ml DdGlud2; pH 7.5, 100 mM NaCl, room temperature.
A further data set deals with T2, Llo2453 (Legionella longbeachae, UniProt D3HKA9).
T2 construct: gene LLO_2453
It is filed as biochemical.

A further data set deals with T3, Ltuc1293 (Legionella tucsonensis, UniProt A0A0W0ZWS2).
T3 construct: gene Ltuc_1293
It is filed as biochemical.

Substrate in the data set “purified protein”: N[C@@H](CCC(=O)O)C(=O)O
As to the kind of experiment: purified protein. As to conditions: 5 mM NAD+, 100 mM Tris-HCl pH 8.0, 0.1 mg/ml BSA, 1 mM DTT, 23 °C, oxidative deamination.

The data set “SEC” concerns the molecule itself. Nature of the data set: SEC. In general terms: In gel filtration, larger molecules generally elute earlier.

Sequence of Lart1 (Q5ZZ30 whole entry, looked up): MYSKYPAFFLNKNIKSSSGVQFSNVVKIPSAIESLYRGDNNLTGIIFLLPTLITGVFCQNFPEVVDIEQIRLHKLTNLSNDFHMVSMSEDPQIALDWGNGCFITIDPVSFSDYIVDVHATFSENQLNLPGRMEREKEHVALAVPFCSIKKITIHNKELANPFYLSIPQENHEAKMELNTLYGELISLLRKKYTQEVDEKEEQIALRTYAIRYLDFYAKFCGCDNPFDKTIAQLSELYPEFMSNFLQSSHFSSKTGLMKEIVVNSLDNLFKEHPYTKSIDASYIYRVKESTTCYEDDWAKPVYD
T2 sequence (D3HKA9 1-303): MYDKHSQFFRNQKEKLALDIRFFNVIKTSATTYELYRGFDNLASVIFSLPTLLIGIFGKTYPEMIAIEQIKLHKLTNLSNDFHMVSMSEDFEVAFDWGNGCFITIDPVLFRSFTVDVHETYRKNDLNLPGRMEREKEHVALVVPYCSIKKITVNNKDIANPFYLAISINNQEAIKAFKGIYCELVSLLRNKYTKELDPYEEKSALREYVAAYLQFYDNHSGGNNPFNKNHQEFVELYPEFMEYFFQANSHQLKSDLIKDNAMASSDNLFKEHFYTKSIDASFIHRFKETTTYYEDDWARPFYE
T3 sequence (A0A0W0ZWS2 1-330): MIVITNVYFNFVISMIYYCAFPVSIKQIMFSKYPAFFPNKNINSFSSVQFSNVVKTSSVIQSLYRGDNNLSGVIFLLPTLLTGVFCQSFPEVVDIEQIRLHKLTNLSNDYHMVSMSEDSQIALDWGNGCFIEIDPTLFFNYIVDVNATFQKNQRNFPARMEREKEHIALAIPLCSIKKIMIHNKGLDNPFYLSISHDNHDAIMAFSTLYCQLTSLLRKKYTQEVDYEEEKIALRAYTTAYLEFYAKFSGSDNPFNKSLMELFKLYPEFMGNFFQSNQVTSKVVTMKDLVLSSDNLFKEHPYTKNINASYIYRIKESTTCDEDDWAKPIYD

For `Nc1nc2c(ncn2[C@@H]2O[C@H](COP(=O)(O)OP(=O)(O)OP(=O)(O)O)[C@@H](O)[C@H]2O)c(=O)[nH]1` [GTP], the “fold stimulation at 1 mM” value at DdGlud2 is listed as 2.5 fold. As for `NC(=O)c1cccnc1` [nicotinamide], the inhibition result on Lart1 was “Lart1 ADP ribosylation was inhibited by free nicotinamide in ≥ twofold excess of NAD+”. For `NC(=O)c1ccc[n+]([C@@H]2O[C@H](COP(=O)(O)OP(=O)(O)OC[C@H]3O[C@@H](n4cnc5c4ncn4ccnc54)[C@H](O)[C@@H]3O)[C@@H](O)[C@H]2O)c1` [etheno-NAD+], the “ADP-ribosylation of DdGlud2, anti-ethenoadenosine immunoblot” value at Llo2453 was “ADP-ribosylated DdGlud2 in assays using both etheno-NAD+ and biotin-NAD+ as substrates”; on Ltuc1293 it was “ADP-ribosylated DdGlud2 in assays using both etheno-NAD+ and biotin-NAD+ as substrates”.

B1: DdGlud2 (Dictyostelium discoideum) (protein)
chain: T1 sequence (Q54VI3 1-1042)
Take B1: the Km in “purified protein” was 18.53 (95% CI 10.72, 32.15) mM.

B2: Dictyostelium discoideum Glud2 (NAD+-dependent glutamate dehydrogenase of the 115-kDa class) (enzyme, UniProt Q54VI3 1-1042, looked up)
chain: T1 sequence (Q54VI3 1-1042)
notes: also called DdGlud2; Dictyostelium Glud2; not shown: 6X-His, N-terminal, cleaved; SUMO (yeast SMT3), N-terminal, cleaved
Turning to B2, the stoichiometry N – broadly, a count of units in the complex or per binding partner – in the data set “SEC” was determined as 2.

The values are drawn from publication PMC7949102 (The Journal of Biological Chemistry, 2021).
